“Also recorded” adds a separate entry of the source.
Tests used:
[1] = test system: MC3T3 osteoblast precursors; assay: Osteoblast differentiation / mineralization assay with Alizarin Red-S staining; assay type: cell-based, mouse; conditions: for osteoblast mineralization (calcium deposition, Alizarin Red-S): 200 μM, 17 days of culture, mineralizing medium, no TNFα
Experimental: (§1) The mouse preosteoblastic cell line MC3T3-E1, clone 14 (MC3T3) and the mouse monocytic cell line RAW264.7 were purchased from the Amerimay Type Culture Collection (Manassas, Va.) and cultured as described in, for example, Li et al. (2007) J Bone Miner Res 22(5): 646-655; and Yamaguchi et al. (2009) Int J Mol Med 24(5): 671-675.
For mineralization assays MC3T3 cells were plated in 12-well dishes at a density of 1.0×10^5 cells per well in mineralization medium (α-MEM supplemented with 10% FBS, L-ascorbic acid (100 μg/ml) and 4 mM β-glycerophosphate) as previously described in, for example, Li et al. (2007) J Bone Miner Res 22(5): 646-655; and Sugimoto et al. (2000) Int J Mol Med 5(5): 515-520. Strontium ranelate, sodium ranelate or strontium chloride were added at the indicated doses and cells replenished with fresh medium every 3 days. At 17-18 days of culture, cells were rinsed with PBS and calcium deposition was visualized by fixing the cells in 75% ethanol for 30 minutes at 4° C. followed by staining with Alizarin Red-S (40 mM, pH 6.2) for 30 minutes at room temperature. Excess stain was removed by copious washing with distilled water. Plates were imaged using a flatbed smayner (Epson Perfection 1660 Photo).
The mechanism by which strontium ranelate promotes osteoblast differentiation was investigated using an in vitro model. The in-vitro model used to investigate utilizes the MC3T3 mouse pre-osteoblast cell line that differentiates spontaneously into active osteoblasts within 21 days of culture in medium containing ascorbic acid and β-glycerophosphate (mineralizing medium).

[2] = test system: RAW264.7 osteoclast precursors; assay: Osteoclastogenesis assay with TRAP staining; assay type: cell-based, mouse; conditions: RANKL 30 ng/ml, 7 days
Experimental: as §1
RAW264.7 cells were cultured in 96-well plates in α-MEM supplemented with 10% FBS and 100 IU/ml penicillin, and 100 μg/ml streptomycin at a density of 1×10^4 cells/well. Cells were cultured for 6 days with RANKL ([…]) pre-incubated for 10 minutes with crosslinking anti-poly-histidine antibody (2.5 μg/ml), to induce osteoclast formation. Strontium ranelate, sodium ranelate or strontium chloride were added at the indicated doses. After 6 days of culture, the cells were fixed and stained for TRAP, a specific maker of the osteoclast phenotype, using a leukocyte acid phosphatase kit. TRAP+ cells with three or more nuclei were defined as osteoclasts and were quantitated under light microscopy, and normalized for cell size based on number of nuclei. Five wells per group were averaged. Representative wells were photographed under bright field microscopy using a Nikon Eclipse TE2000-S inverted microscope equipped with a digital camera (QImaging Corp., Burnaby, BC, Mayada).
To establish an in vitro osteoclastogenesis model suitable for investigation of strontium ranelate activity, the monocytic cell line RAW 264.7 was employed and differentiated into osteoclasts by addition of the key osteoclastogenic cytokine RANKL was induced. The effect of strontium ranelate on osteoclast differentiation was tested over a dose range from 1 μM to 200 μM and cultures were stained with TRAP 7 days later and osteoclast formation quantitated.

[3] = test system: TNFα-induced NF-κB activation in MC3T3 osteoblast precursors; assay: NF-κB luciferase reporter assay in MC3T3 cells stimulated with TNFα; assay type: cell-based, mouse; conditions: 24 h
Text: (§2) The NF-κB responsive reporter pNF-κB-Luc (BD Biosciences) and the Smad responsive reporter pGL3-Smad were used as previously described by in, for example, Li et al. (2007) J Bone Miner Res 22(5): 646-65. Briefly, reporter plasmids were transfected into MC3T3 or RAW264.7 cells (1×10^5 cells/well) using Lipofectamine 2000 reagent (Invitrogen) in α-MEM without FBS and antibiotics. Five hours later the medium was changed to α-MEM containing 10% FBS plus antibiotics and MC3T3 cells treated with TNFα (1 or 10 ng/ml as indicated) or RAW264.7 cells treated with RANKL (30 ng/ml) to stimulate NF-κB activity. In some experiments, Smad activity was induced in MC3T3 cells using TGFβ (1 ng/ml). Strontium ranelate, sodium ranelate or strontium chloride were added at the indicated doses. Cells were extracted with passive lysis buffer (Promega Corporation, Madison Wis.) 24 hours later, and luciferase activity was measured using the Luciferase Assay System of Promega, on a microplate luminometer (Turner Designs, Sunnyvale, Calif., USA).
A major mechanism by which TNFα mediates its suppressive action on osteoblasts is through NF-κB activation. See Li et al. (2007) J Bone Miner Res 22(5): 646-655; and Nanes (2003) Gene 321: 1-15.

[4] = test system: TGFβ-induced Smad activation in MC3T3 cells; assay: Smad luciferase reporter assay in MC3T3 cells (TGFβ with or without TNFα); assay type: cell-based, mouse; conditions: 24 h; for direct effect on basal Smad activity: 500 μM; for effect on TNFα suppression of TGFβ-induced Smad activity: TGFβ 1 ng/ml, TNFα 1 ng/ml, concentrations of 100 μM and above
Text: as §2
TGFβ is a potent early osteoblast precursor commitment and recruitment factor. See, e.g., See Janssens et al. (2005) Endocr Rev 26(6): 743-774; and Tang et al. (2009) Nat Med 15(7): 757-765. It has been reported that TNFα antagonizes TGFβ-induced Smad signaling in osteoblast precursors (see, e.g., Li et al. (2007) J Bone Miner Res 22(5): 646-655) and consequently investigated whether strontium ranelate may alleviate TNFα-induced suppression of TGFβ-induced Smad signaling in preosteoblasts. MC3T3 cells were transiently transfected with a Smad responsive luciferase reporter and Smad-induced transcription quantitated following stimulation by TGFβ.

[5] = test system: RANKL-induced NF-κB activation in RAW264.7 osteoclast precursors; assay: NF-κB luciferase reporter assay in RAW264.7 cells stimulated with RANKL; assay type: cell-based, mouse; conditions: RANKL 30 ng/ml, dose range 1 to 1000 μM, 24 h
Text: as §2
See Caudrillier et al. (2010) Mol Pharmacol 78(4):569-576.

[6] = test system: NF-κB nuclear translocation; conditions: reported by Caudrillier et al. (2010); cited from earlier work
[7] = test system: postmenopausal women; conditions: clinical trials; cited from earlier work
[8] = in vitro osteoblast differentiation and mineralization assays

Row | Structure (SMILES) | osteoblast mineralization (calcium deposition, Alizarin Red-S) [1] | RANKL-induced osteoclast formation (TRAP+ multinucleated cells) ([2]; 10 or 100 μM) | TNFα-induced NF-κB activity (luciferase) ([3]; TNFα 1 ng/ml, 200 μM) | direct effect on basal Smad activity [4] | effect on TNFα suppression of TGFβ-induced Smad activity [4] | RANKL-induced NF-κB activity (luciferase) [5] | effect on TNFα suppression of basal mineralization ([1]; TNFα 5 ng/ml, 10 μM) | mineralization relative to basal levels in presence of TNFα ([1]; TNFα 5 ng/ml, 100 and 200 μM) | lowest dose achieving significant biological activities [1, 8] [μM] | saturating dose [1, 8] [µM] | RANKL-induced osteoclast formation (TRAP+ multinucleated cells) ([2]; 1 μM) | RANKL-induced NF-κB nuclear translocation [6] | TNFα-induced NF-κB activity (luciferase) ([3]; high TNFα 10 ng/ml, dose range 1 to 1000 μM) | TNFα-induced NF-κB activity (luciferase) ([3]; low TNFα 1 ng/ml, dose range 1 to 1000 μM) | bone loss [7] | fracture risk [7] | RANKL-induced NF-κB activity (luciferase) ([5]; listed as Strontium ranelate)
1 | N#Cc1c(N(CC(=O)[O-])CC(=O)[O-])sc(C(=O)[O-])c1CC(=O)[O-].[Na+].[Na+].[Na+].[Na+] [sodium ranelate] | no stimulatory effects on osteoblast mineralization | neither strontium chloride nor sodium ranelate had any effect on osteoclast formation | completely ineffective | no direct effect on basal Smad activity | significantly relieved the suppressive effect of TNFα on TGFβ-induced Smad activity |  |  |  |  |  |  |  |  |  |  |  | 
2 | [Cl-].[Cl-].[Sr+2] [strontium chloride] | no stimulatory effects on osteoblast mineralization | neither strontium chloride nor sodium ranelate had any effect on osteoclast formation | completely ineffective |  |  | no significant effect; also recorded: failed to suppress NF-κB activity |  |  |  |  |  |  |  |  |  |  | 
3 | N#Cc1c(N(CC(=O)[O-])CC(=O)[O-])sc(C(=O)[O-])c1CC(=O)[O-].[Sr+2].[Sr+2] [strontium ranelate, distrontium salt of 2-[N,N-di(carboxymethyl)amino]-3-cyano-4-carboxymethylthiophene-5-carboxylic acid] | promote a robust osteoblast mineralization; also recorded: robust enhancement in mineralization | potently suppresses osteoclast formation at both doses | significantly suppressed TNFα-induced NF-κB activity | no direct effects on Smad activity | significantly alleviates the suppressive effect of TNFα on TGFβ-induced Smad activation | potently antagonize RANKL-induced NF-κB activation | completely reversed the suppressive effect of TNFα on basal mineralization | potently augmented mineralization over basal levels | 1 | 100 | significantly suppressed | antagonize RANKL-induced NF-κB nuclear translocation | dose dependently suppressed TNFα-induced NF-κB activity | dose dependently suppressed TNFα-induced NF-κB activity | protect against bone loss | reduce fracture risk | dose-dependently and significantly blunted RANKL-induced NF-κB activity
